One molecule from patent US5482975A, “Adenosine diphosphoribose polymerase binding nitroso aromatic compounds useful as retroviral inactivating agents, anti-retroviral agents and anti-tumor agents” (priority 1993, dated 1996) can be followed below.

SMILES strings stand for the structures. Entries after “also recorded” stand apart in the source; their conditions may differ.

The test system of one series is anti-tumor and anti-HIV. As to the kind of experiment: biological action of nitroso compounds (anti-tumor and anti-HIV, summary). In kind it is cell-based. As to conditions: effective even after exposure of cells as short as 30 minutes.
The next series concerns H9 cells. As to the kind of experiment: [3H] thymidine uptake, H9 cells (FIG. 2B). The series is classed as cell-based, human. As to conditions: 250 μM; 10% FCS.
Series [1] concerns various cancer cells (855-2, HL-60, D32, D37, CRL 7712, 186 medulla, L1210, MDA-468). As to the kind of experiment: functions of various cancer cells in presence of compounds (FIGS. 4-9). The conditions noted are these: summary statement. The series is classed as cell-based.
Procedure: Experiments were performed in which the functions of various cancer cells (855-2 and HL-60 leukemia cells, D32, D37 and CRL 7712 glioblastoma cell lines, 186 medulla tumor cell line, L1210 murine leukemia cell line, MDA-468 human breast tumor cell line) and normal cells (neutrophil leukocytes and bone marrow or peripheral blood stream cells) were assessed in the absence or presence of the compounds.
The test system of the next series is 855-2 cells. As to the kind of experiment: cytocidal activity, MTT assay. In kind it is cell-based, human. The conditions noted are these: 10 μM; 100,000 cells/ml. The protocol:
MTT (3-[4,5-[…]]-2,5-diphenyltetrazolium bromide) at 1 mg/ml was then added for 16 hours. The absorbance of the pelleted cell was then measured at 550 nm after adding DMSO to solubilze the cells.
(In general: Tetrazolium dyes change colour on reduction, which living cells bring about.)

Series [2] deals with T1, Zn(HIV1-F1) oligonucleotide complex (Human immunodeficiency virus type 1 lw12.3 isolate, UniProt Q70622).
T1 construct: NC cut from Gag polyprotein (Pr55Gag)
Kind of series: NMR study of Zn(HIV1-F1) nucleic acid binding. The series is classed as biochemical, HIV-1. As to conditions: two equivalents NOBA. An excerpt: The downfield regions of the spectra show the signals of the aromatic and ribose H1' protons, and the upfield region contain signals of the methyl group protons. Dramatic spectral changes occur upon addition of oligonucleotide to Zn(HIV1-F1), including large upfield shifts of the Phe 2 and Ile 10 side chain=n signals and a downfield shifting and broadening of the guanosine-H8 proton signal (second from the top).
The reaction mechanism, schematically illustrated in FIG. 12, is consistent with the result of NMR analysis in FIGS. 10 and 11. The reaction mechanism proposed in FIG. 12 is a useful model but is not intended to limit the scope of the claimed invention.

A further series relates to HIV-1 (LAV strain). As to the kind of experiment: HIV-1 inactivation assay in PBL cultures (FIG. 13A, B). In kind it is cell-based. The conditions noted are these: NOBA versus NOBP. The protocol: The assay was performed as described in FIG. 13A except that the 30 min. preincubation of virus with NOBA was carried out at 0>, 22° or 37° C.
An HIV-1 stock having an infectivity titer of 100,000 TCID50 was incubated for 30 min. at 22° C. with either of the drugs. Control HIV samples, containing no drugs, were incubated in the same manner. […] At the end of this incubation cultures were assayed for productive infection by an immunoassay for HIV-1 antigens and by reverse transcriptase as described in McDougal, et al., J. Immunol Methods 76:171-183 (1985). Virus titers were expressed as percentile values (percent infected cultures) compared to the controls, containing HIV dilutions which were not preincubated with the C-nitroso drugs. In a separate series of experiments, HIV-1 dilutions and C-nitroso drugs (see upper abscissa) were not preincubated but were added simultaneously to lymphocytes in exactly the same concentrations as described previously (i.e., following preincubation) and viral growth monitored 9 days later. […] Chem. Soc. 111:395-396 (1989), South, et al., Biochem Pharm. 40:123-129 (1990), Summers, et al., Biochemistry 29:329-340 (1990), the inhibition of HIV-1 propagation was profound when C-nitroso drugs were preincubated with HIV-1, whereas only negligible effect on HIV-1 growth occurred when both drugs and virus were added simultaneously. […]

For the next series, the target named is Zn(HIV1-F1) (Human immunodeficiency virus type 1 lw12.3 isolate, UniProt Q70622). Kind of series: NMR study of Zn ejection from HIV-1 NC zinc finger peptide. The series is classed as biochemical. Also on record: parent Gag (Gag-Pol) polyprotein. The protocol: The * and + symbols denote the aromatic proton signals of the zinc-coordinated and zinc-free His 9 residue. Upon completion of the reaction, reflected by complete ejection of zinc (t=90 min), 50% of the NOBA remained unreacted indicating a 1:1 reaction stoichiometry. NOBA (3-nitrosobenzamide), was synthesized described elsewhere in this application.
To determine if NOBA is capable of ejecting zinc from retroviral-type zinc fingers, NMR studies were performed on a peptide with amino acid sequence corresponding to the N-terminal CCHC zinc finger of the HIV-1 NC protein, Zn(HIV1-F1), South, et al., J. Am. Chem. Soc. 111:395-396 (1989), South, et al., Biochem Pharm. 40:123-129 (1990 ), Summers, et al., Biochemistry 29:329-340 (1990). NMR spectra of Zn(HIV-F1) were performed before and after the addition of NOBA (3-nitrosobenzamide). […] Chem Soc. 111:395-396 (1989), and three-dimensional structural studies have shown that the peptide adopts a structure that is essentially identical to the structure of the corresponding region in the intact NC protein, South, et al., Biochemistry 29:7786-7789 (1990). The down-field region of the ^1 H NMR spectrum showing the signals due to the aromatic proton of His 9 and Phe 2 is illustrated in FIG. 10 (bottom). Addition of two molar equivalents of NOBA results in the loss of the signals due to zinc-bound histidine (denoted by *) and the appearance of broad signals representative of zinc-free histidine (denoted by +). Other signals in the spectrum are due to NOBA protons. […] By comparison, a 10-fold molar excess of EDTA is required to remove zinc from Zn(HIV-1-F1), Summers, et al., J. Cell Biochem 45:41-48 (1991).

The subject of series [3] is normal rhesus bone marrow stem cells. Kind of series: CFU stem cell toxicity assay (FIG. 5A). As to conditions: 10 μM.

In the case of `NC(=O)c1cccc(N=O)c1` [NOBA, 3-nitrosobenzamide], the “anti-tumor and anti-HIV activity” value in the series with anti-tumor and anti-HIV is “highly active”. For the same molecule, the “inhibition of thymidine uptake” value with H9 cells is “almost complete inhibition”. Moreover, in series [1], the “effectiveness against tumor cells” value is recorded as “highly effective”. The “cell killing” value in the series on 855-2 cells is recorded as “complete killing”. The “effect on zinc finger nucleic acid complex” value in series [2] was “ejection of zinc with concomitant dissociation of the zinc finger nucleic acid complex; also recorded: NOBA-induced zinc ejection leads to loss of high-affinity nucleic acid binding function”. Also, in the series on HIV-1 (LAV strain), the “relative depression of HIV-1 propagation” value is “greater depression of HIV-1 propagation”. On Zn(HIV1-F1) (2 mM NOBA, 1 mM Zn(HIV1-F1), D2O, pH*=6.2, 30° C.), the “time to complete ejection of zinc” value was found to be 90 min. Moreover, the “NOBA remaining unreacted on completion” value at Zn(HIV1-F1) (2 mM NOBA, t=90 min) stood at 50%. For the same molecule, the “stoichiometry of reaction” value on Zn(HIV1-F1) (after 90 minutes) is recorded as “reacts stoichiometrically with Zn(HIV1-F1)”. Besides, the “zinc-bound His signals” value on Zn(HIV1-F1) (two molar equivalents, after 90 min.) is given as “no signals attributable to the zinc-bound His could be detected”. Further, the “CFU stem cell toxicity” value in series [3] is on record as “non-toxic”.
